{"source": "patent US12662530B2", "about": "“Anti-ADM-antibodies binding to the free N-terminus for accelerated transition of ADM-Gly to bio-ADM in patients with ADM-Gly/ bio-ADM ratio above a threshold and combination with vitamin C” (SphingoTec GmbH, priority 2020, dated 2026)", "key": {"native PAM": {"system": "native PAM", "test": "ADM maturation activity (AMA) of native PAM in Li-Heparin plasma with antibody and varying L-ascorbate", "type": "biochemical, human", "settings": "FIG. 15", "procedure": "A serial antibody-dilution with concentrations of 0, 5, 10, 50, 100, 500 and 3000 μg/mL per well, respectively (in 20 μl) were pipetted into 96-well micro-titer plates. Then 160 μl PAM reaction buffer (100 mM Tris-HCl, 6.25 μM CuSO4, 62.5 μM amastatin, 250 μM leupeptin, 36 ng/mL ADM-Gly) with varying L-ascorbate concentrations was added to the wells and incubated for 15 min. Afterwards the reaction was started by addition of 20 μl of Li-Heparin plasma, containing native PAM Immediately after addition of plasma, 100 μl from each well were removed and inactivated by addition of EDTA (20 mM final concentration) to generate a t=0 minutes reaction point. Inactivated and non-inactivated samples were incubated for 40 minutes at 37° C. and the reaction in non-inactivated samples was stopped as described above. For quantification of produced ADM-NH2 the Sphingotest® bio-ADM Kit (Weber et al. 2017) was utilized according to manufacturer's manual. The ADM maturation activity (AMA) was calculated according to equation 1 (DF=dilution factor of sample matrix)."}, "[1]": {"system": "CLP-induced sepsis in mice", "settings": "pre-treatment, cited from earlier work"}, "[2]": {"settings": "Geven et al. 2017; cited from earlier work"}, "native human plasma PAM": {"system": "native human plasma PAM", "test": "Formation of bio-ADM by native human PAM in Li-Heparin plasma, with and without exogenous ADM-Gly", "type": "biochemical", "settings": "without addition of exogenous ADM-Gly; HAM8101 300 μg/mL; 90 minutes", "procedure": "In a further experiment we investigated the formation of bio-ADM from ADM-Gly by native human plasma PAM and the influence of N-terminal- and mid-regional anti-adrenomedullin antibodies.\nHuman Li-Heparin plasma (pool of 3 specimen) was used as source of human native PAM. The amidation reaction was performed in a total volume of 120 μl at 37° C. 96 μl of plasma were spiked with either HAM8101 (375 μg/mL final concentration) or ADM-Gly (5 ng/mL final concentration) or with both. As control, equal volumes of 100 mM Tris-HCl, pH 7.5 were added to untreated plasma. The prepared samples were allowed to chill for 15 minutes at room temperature. The amidation reaction was started by addition of 24 μl of PAM-reaction buffer resulting in final concentrations of 2 mM L-Ascorbate and 5 μM CuSO4, respectively. The final concentrations of HAM8101 and ADM-Gly were 300 μg/mL and 4 ng/mL, respectively. The reaction was allowed to proceed for 90 minutes at 37° C. After 0 min, 30 min, 60 min and 90 min of incubation, the reaction was stopped by addition of 20 mM EDTA (final concentration). The concentration of bio-ADM in the reaction sample was quantified using the Sphingotest® bio-ADM immunoassay as described recently (Weber et al. 2017. JALM 2(2): 222-233)."}, "[3]": {"test": "Single escalating i.v. doses in healthy male subjects (phase I): ADM values and safety", "type": "in vivo, human", "procedure": "The study was described in Geven et al. (Geven et al. 2017. Intensive Care Med Exp 5 (Suppl 2): 0427). Briefly, the study was conducted in healthy male subjects as a randomized, double-blind, placebo-controlled, study with single escalating doses of NT-H antibody (HAM8101) administered as intravenous (i.v.) infusion in 3 sequential groups of 8 healthy male subjects each (1st group 0.5 mg/kg, 2nd group 2 mg/kg, 3rd group 8 mg/kg) of healthy male subjects (n=6 active, n=2 placebo for each group). The main inclusion criteria were written informed consent, age 18-35 years, agreement to use a reliable way of contraception and a BMI between 18 and 30 kg/m^2. Subjects received a single i.v. dose of NT-H antibody (HAM8101) (0.5 mg/kg; 2 mg/kg; 8 mg/kg) or placebo by slow infusion over a 1-hour period in a research unit."}}, "note": "Where two headings read alike, the source gives them in different places.", "data": [{"substance": "HAM8101: humanized N-terminal anti-ADM antibody, heavy chain SEQ ID No. 35, light chain SEQ ID No. 36", "values": [{"measurement": "increase of the bio-ADM formation of PAM", "setting": "native PAM; 100 μg/mL of HAM8101 in the amidation assay, Li-Heparin plasma", "result": 40, "unit": "%"}, {"measurement": "effect on the amidation for each ascorbate concentration assayed", "setting": "native PAM; HAM8101 0-3000 μg/mL", "result": "concentration dependent positive effect on the amidation"}, {"measurement": "7-day survival", "setting": "[1]; repeated dose administration, control 0%", "result": 40, "unit": "%"}, {"measurement": "7-day survival", "setting": "[1]; single dose administration, control 10%", "result": 50, "unit": "%"}, {"measurement": "safety and tolerability, phase I study", "setting": "[2]", "result": "no serious adverse events were observed"}, {"measurement": "change in bio-ADM concentration", "setting": "native human plasma PAM", "result": "No change in bio-ADM concentration"}, {"measurement": "time within which ADM-values rapidly increased after administration", "setting": "[3]; healthy human individuals, 0.5, 2, 8 mg/kg i.v., FIG. 10", "result": "≤ 1.5", "unit": "h"}, {"measurement": "safety: heart rate, mean arterial pressure, peripheral oxygen saturation, temperature", "setting": "[3]; healthy male subjects, single i.v. dose 0.5, 2, 8 mg/kg", "result": "did not influence heart rate, mean arterial pressure, peripheral oxygen saturation or temperature"}, {"measurement": "routine haematological and biochemical safety laboratory measurements", "setting": "[3]; healthy male subjects, single i.v. dose 0.5, 2, 8 mg/kg versus placebo", "result": "no significant differences between groups"}]}]}
